These results are taken from patent publication EP0621779B1, “INDOMETHACIN LYSINATE FOR THERAPEUTIC USE IN OPHTHALMOLOGY” (JUNG, Jean, priority 1992, dated 1993).

Data set [1] can be described thus: Ocular passage / ocular bioavailability after instillation of eye drops. The class given is in vivo. How it is done:
Les biodisponibilités oculaires des deux formes pharmaceutiques sont équivalentes : le passage obtenu avec la solution à 0,142 % d'indométacine (du lysinate d'indométacine) est similaire à celui obtenu avec la suspension à 1 % (INDOCID®). Cette dernière constatation permet d'affirmer que le passage des collyres à travers les différentes barrières oculaires s'effectue bien par la fraction soluble et non par endocytose de microparticules.
Il faut noter également qu'au temps de prélèvement de 2 h les concentrations d'indométacine mesurées dans l'oeil traité par la solution de lysinate d'indométacine à 0,142 % d'indométacine sont supérieures à celles mesurées dans l'oeil traité par la suspension à 1 % d'indométacine; cela peut être dû à une élimination plus rapide de la forme suspension par le fluide lacrymal en raison de l'irritation oculaire provoquée par la taille des particules.
Elle augmente ensuite régulièrement pour atteindre sa valeur maximale environ 30 minutes après l'instillation (3 à 5 % de la dose instillée) et diminue finalement.

Data set [2] can be described thus: Stability of the isolated salt (storage; dry heat sterilisation of the powder). The note with it: poudre. Type of data set: physicochemical. From the text:
Dans un premier temps, la stabilité du lysinate d'indométacine en fonction de la température a été prouvée et les conditions de température et de durée utilisées pour la stérilisation ont été définis. Dans un deuxième temps, une étude microbiologique a permis de vérifier l'efficacité de la méthode.

A short description of data set [3]: Solubility in solvents (physico-chemical characters). Type of data set: physicochemical. From the text:
Les données des études spectrales (IR, UV, RNM) sont conformes à la structure définie.

With `COc1ccc2c(c1)c(CC(=O)O)c(C)n2C(=O)c1ccc(Cl)cc1` [indométacine, reference compound], in data set [1] (10 minutes après l'instillation), the “concentration de l'indométacine dans l'humeur aqueuse” value is listed as “pratiquement nulle”. Also, in data set [1] (in vivo, topical or ocular, humeur aqueuse, read-out: time after instillation to reach valeur maximale dans l'humeur aqueuse (converted)), the Tmax is approximately 30 min.

On to `COc1ccc2c(c1)c(CC(=O)O)c(C)n2C(=O)c1ccc(Cl)cc1` [lysinate d'indométacine], for which the “passage oculaire (biodisponibilité oculaire)” value in data set [1] (solution à 0,142 % d'indométacine, compared with suspension à 1 % (INDOCID®)) is listed as “similaire”. Besides, the “concentrations d'indométacine mesurées dans l'oeil traité” value in data set [1] (temps de prélèvement de 2 h, solution à 0,142 % d'indométacine compared with suspension à 1 % d'indométacine) is “supérieures”. In addition, the “stabilité dans le temps” value in data set [2] (conditions classiques de conservation) is “stables dans le temps”. Also, the “stabilité à la stérilisation par la chaleur sèche” value in data set [2] (température supérieure à 170°C) is listed as “sans être dégradé”. For the same molecule, the solubilité result is on record as “pratiquement insoluble” in data set [3] (dans l'acétone); “totalement insoluble” in data set [3] (dans l'acétonitrile); “soluble” in data set [3] (dans l'eau); “totalement insoluble” in data set [3] (dans l'éthanol); “totalement insoluble” in data set [3] (dans l'éther); “pratiquement insoluble” in data set [3] (dans le chloroforme). Moreover, the values for the solubilité entry in data set [3] (dans le dichlorométhane) and in data set [3] (dans le méthanol) were “pratiquement insoluble” and “soluble”, respectively.
